Results reported in patent US20240425491A1, “HETEROARYL COMPOUNDS USEFUL IN THE TREATMENT OF COGNITIVE DISORDERS” (University College Cardiff Consultants Limited, priority 2021, published 2024).
pKi: −log10 of the molar value.

Columns and labels:
[1] = target: T1, human recombinant GABAAR containing α5β3γ2 subunits (benzodiazepine site) (Homo sapiens, UniProt P18507+P31644); assay: In vitro radioligand binding assay (α5-GABAAR Ki); conditions: inhibition of [3H]Ro15-1788 binding, membranes of L(tk−) cells expressing human α5β3γ2; read-out: α5-GABAAR Ki
T1 construct: expressed in transfected cells; host or cells: mouse L(tk−) cells, dexamethasone-inducible vector pMSGneo
Procedure, shortened: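 Displacement of 4 nM [^3H]flumazenil from the benzodiazepine site, read by filtration and scintillation, gave IC50, converted to Ki (Cheng-Prusoff, saturation-derived Kd). Receptor: human α5β3γ2 membranes from L(tk^−) cells, 50 μg protein/well; 1 h, 4° C; TP003 1 μM defined nonspecific binding.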

rat brain α5-GABAARs = target: T2, rat brain α5-GABAARs (Rattus norvegicus, UniProt P18508+P19969); assay: In vivo brain receptor occupancy assay ([3H]L-655,708 binding)
T2 construct: from tissue; host or cells: forebrain of male Sprague-Dawley rats, dosed in vivo
Method: The occupancy of rat brain benzodiazepine binding sites by compound was measured by its ability to inhibit the in vivo binding of [^3H] L-655,708. This radioligand is selective for the benzodiazepine site of GABAA receptors containing an α5 subunit (Quirk et al. 2001, Journal of Neurochemistry, 77 445-51) and has been used previously to measure in vivo α5-GABAAR occupancy (Atack et al. 2005, Neuropharmacology, 49 220-229).
[…] To block all benzodiazepine binding sites and therefore define the level of non-specific binding of [^3H] […]
Animals were then killed by stunning and decapitation, the whole brain was rapidly removed, the cerebellum and brainstem were discarded, leaving the forebrain which was weighed and homogenised in 10 volumes of ice-cold homogenising buffer (10 mM potassium phosphate buffer containing 100 mM KCl, pH 7.4). Aliquots of homogenate (500 μL) were then added directly to scintillation vials (total radioactivity) or filtered and washed with 5 ml Tris-HCL buffer (50 mM, pH 7.4) over Whatman glass microfiber GF/B filters. Washed filters were then placed in scintillation vials (three filters per vial) and scintillation fluid was added to all vials, which were then counted on a Perkin-Elmer Tricarb 2900TR scintillation counter (membrane-bound radioactivity). […]

T2 sequence (P19969 32-464 limits assumed): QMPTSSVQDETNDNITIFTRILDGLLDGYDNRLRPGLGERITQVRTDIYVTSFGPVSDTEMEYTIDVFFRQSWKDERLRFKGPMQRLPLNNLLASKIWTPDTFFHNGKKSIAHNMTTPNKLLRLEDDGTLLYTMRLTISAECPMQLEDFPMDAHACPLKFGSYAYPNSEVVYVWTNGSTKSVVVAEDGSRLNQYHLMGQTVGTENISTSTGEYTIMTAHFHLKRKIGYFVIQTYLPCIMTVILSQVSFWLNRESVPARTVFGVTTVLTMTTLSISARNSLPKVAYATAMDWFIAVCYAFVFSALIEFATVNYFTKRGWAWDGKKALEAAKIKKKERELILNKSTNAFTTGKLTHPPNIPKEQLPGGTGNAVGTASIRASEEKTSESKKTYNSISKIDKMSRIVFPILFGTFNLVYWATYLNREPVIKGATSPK
T2 sequence (P18508 39-466): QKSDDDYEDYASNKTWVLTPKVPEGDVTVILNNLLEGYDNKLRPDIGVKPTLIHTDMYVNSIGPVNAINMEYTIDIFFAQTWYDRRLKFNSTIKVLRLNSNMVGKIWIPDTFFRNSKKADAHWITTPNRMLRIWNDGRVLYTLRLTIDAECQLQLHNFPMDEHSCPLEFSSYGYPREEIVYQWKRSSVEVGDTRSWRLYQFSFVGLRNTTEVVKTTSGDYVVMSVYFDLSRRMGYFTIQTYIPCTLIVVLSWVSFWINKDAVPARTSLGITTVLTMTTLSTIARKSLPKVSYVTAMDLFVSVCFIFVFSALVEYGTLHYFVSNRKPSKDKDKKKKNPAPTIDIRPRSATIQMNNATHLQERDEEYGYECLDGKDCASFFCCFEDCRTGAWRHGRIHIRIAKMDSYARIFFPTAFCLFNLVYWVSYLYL
T1 sequence (P31644 32-462): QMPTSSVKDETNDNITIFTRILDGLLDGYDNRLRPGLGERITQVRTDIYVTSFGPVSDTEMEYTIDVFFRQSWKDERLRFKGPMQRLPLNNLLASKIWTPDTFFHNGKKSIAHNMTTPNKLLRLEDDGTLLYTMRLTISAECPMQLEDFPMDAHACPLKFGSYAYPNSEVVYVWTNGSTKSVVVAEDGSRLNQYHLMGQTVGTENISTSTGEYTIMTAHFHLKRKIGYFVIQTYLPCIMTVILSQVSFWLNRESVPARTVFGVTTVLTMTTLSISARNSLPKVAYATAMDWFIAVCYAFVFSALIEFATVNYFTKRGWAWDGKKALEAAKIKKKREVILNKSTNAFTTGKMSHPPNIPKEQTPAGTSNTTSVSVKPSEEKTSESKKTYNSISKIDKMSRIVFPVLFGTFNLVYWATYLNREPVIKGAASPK
T1 sequence (P28472 26-473 partner): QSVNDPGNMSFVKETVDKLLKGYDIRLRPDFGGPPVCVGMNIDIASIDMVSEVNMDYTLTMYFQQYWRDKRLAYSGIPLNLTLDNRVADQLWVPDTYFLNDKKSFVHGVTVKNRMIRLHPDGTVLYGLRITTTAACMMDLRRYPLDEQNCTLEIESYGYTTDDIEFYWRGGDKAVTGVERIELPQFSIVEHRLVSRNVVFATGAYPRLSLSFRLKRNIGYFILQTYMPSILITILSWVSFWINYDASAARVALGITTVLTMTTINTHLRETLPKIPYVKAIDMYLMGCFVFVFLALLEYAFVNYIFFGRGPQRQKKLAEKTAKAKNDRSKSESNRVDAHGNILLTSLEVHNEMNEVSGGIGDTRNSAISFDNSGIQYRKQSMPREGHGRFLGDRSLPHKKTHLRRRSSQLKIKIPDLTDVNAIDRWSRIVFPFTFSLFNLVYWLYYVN
T1 sequence (P18507 40-475): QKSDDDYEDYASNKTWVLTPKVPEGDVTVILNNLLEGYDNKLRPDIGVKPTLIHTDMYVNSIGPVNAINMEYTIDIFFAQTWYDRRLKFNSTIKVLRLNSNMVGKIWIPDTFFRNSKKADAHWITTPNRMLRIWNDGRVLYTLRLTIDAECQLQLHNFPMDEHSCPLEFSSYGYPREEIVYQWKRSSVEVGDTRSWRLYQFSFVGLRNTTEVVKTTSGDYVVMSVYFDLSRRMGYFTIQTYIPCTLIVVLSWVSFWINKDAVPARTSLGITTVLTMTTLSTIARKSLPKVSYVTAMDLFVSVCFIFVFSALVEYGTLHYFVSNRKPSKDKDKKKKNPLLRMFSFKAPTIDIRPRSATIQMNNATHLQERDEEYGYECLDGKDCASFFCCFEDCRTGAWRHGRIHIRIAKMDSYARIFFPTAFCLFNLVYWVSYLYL

In the case of `COc1nc(-n2ccnc2)ccc1NC(=O)c1c(-c2ccccc2)noc1C` [Example 1, N-(6-Imidazol-1-yl-2-methoxy-3-pyridyl)-5-methyl-3-phenyl-isoxazole-4-carboxamide], the pKi [1] was 8.54, the “occupancy of rat brain α5-GABAARs, dependence on dose” value (rat brain α5-GABAARs; 3 to 30 mg/kg p.o., FIG. 3) was “dose-dependent” and the receptor occupancy at 10 mg/kg (rat brain α5-GABAARs; po, 10 mg/kg p.o., inhibition of in vivo [3H]L655,708 binding, FIG. 3, read-out: occupancy of rat brain α5 GABAA receptors) was 77%.
